Reference: patent US11896007B2, “Pest control using natural pest control agent blends” (TYRATECH, INC., priority 2008, dated 2024)
pKd, pKi: −log10 of the molar value.

How the values were obtained:
Drosophila TyrR [1] = biological target: T1, Drosophila TyrR (Drosophila melanogaster, UniProt P22270, C261Y); assay: Competitive tyramine receptor binding assay with 3H-tyramine
T1 construct: The open reading frame contained in this PCR product encodes a protein of 601 amino acids; expressed in transfected cells
T1 sequence (P22270 27-601 C261Y): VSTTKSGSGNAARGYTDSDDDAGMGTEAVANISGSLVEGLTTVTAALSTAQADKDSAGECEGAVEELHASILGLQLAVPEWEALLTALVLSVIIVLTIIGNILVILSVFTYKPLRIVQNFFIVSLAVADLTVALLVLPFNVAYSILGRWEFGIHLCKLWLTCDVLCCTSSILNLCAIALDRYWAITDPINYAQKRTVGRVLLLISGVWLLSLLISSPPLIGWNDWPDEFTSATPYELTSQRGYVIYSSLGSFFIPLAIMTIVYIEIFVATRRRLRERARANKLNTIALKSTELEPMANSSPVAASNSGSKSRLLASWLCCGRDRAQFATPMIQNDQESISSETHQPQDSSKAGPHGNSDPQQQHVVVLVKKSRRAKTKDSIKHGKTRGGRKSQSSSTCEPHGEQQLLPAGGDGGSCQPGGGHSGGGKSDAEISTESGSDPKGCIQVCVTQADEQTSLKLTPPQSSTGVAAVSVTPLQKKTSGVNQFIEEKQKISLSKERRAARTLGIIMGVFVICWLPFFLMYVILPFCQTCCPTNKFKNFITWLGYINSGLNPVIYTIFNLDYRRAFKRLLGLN

[2] = biological target: T2, Drosophila tyramine receptor (droTyrR) (Drosophila melanogaster, UniProt P22270, C261Y); assay: Intracellular calcium ([Ca2+]i) in S2 cells stably transfected with Drosophila tyramine receptor (Fura-2 AM); format: cell-based; conditions: 1 μM; Dro-TyrR-expressing S2 cells; no increase in pAC control cells (FIG. 25)
T2 construct: The open reading frame contained in this PCR product encodes a protein of 601 amino acids; expressed in transfected cells
T2 sequence (P22270 27-601 C261Y): T1 sequence (P22270 27-601 C261Y)
Description: The blend (at a final concentration of 0.5 mg/mL) was tested on a Drosophila Scheider 2 (“S2”) cell line that was stably transfected with a DNA encoding a tyramine receptor that was amplified from a Drosophila melanogaster head cDNA phage library (“droTyrR”). The intracellular calcium levels (“[Ca^2+]i”) in the treated S2 cells were then measured as a function of time. As a comparison, the a solution of carrier (canola oil, final concentration=0.12 mg/mL) and a solution of surfactant (sugar ester OWA-1570) in insect saline were tested separately.
In a separate set of experiments, the blend (at a final concentration of 0.5 mg/mL) was tested on a Drosophila Scheider 2 (“S2”) cell line that was stably transfected with droTyrR DNA, and the intracellular calcium levels (“[Ca^2+]i”) in the treated S2 cells were then measured as a function of time. […]
In yet another separate set of experiments, the blend (at a final concentration of 0.5 mg/mL) was tested on a Drosophila Scheider 2 (“S2”) cell line that was stably transfected with droTyrR DNA, and the intracellular calcium levels (“[Ca^2+]i”) in the treated S2 cells were then measured as a function of time. […]
Increased cytoplasmic concentrations of IP3 induce release of Ca2+ from the endoplasmic reticulum. […] Data are normalized by dividing each value by the background fluorescence at the beginning of the assay before adding the test sample. […]

Drosophila TyrR [3] = biological target: T1, Drosophila TyrR; assay: 3H-tyramine saturation binding to membranes of S2 cells expressing TyrR; conditions: 0.1 to 30 nM 3H-tyramine
Description: To first isolate membranes, Dro-TyrR-expressing S2 cells grown in Drosophila media are harvested in the same media by scraping from the dishes and then rinsing dishes with PBS. The cells are centrifuged at 1000 g for 3 min, washed once with PBS and centrifuged again as previously described. The cells are suspended in ice cold hypotonic buffer (10 mM Tris-Cl, pH 7.4), incubated on ice for 10 min, and lysed using a glass Bounce homogenizer and tight glass pestle (Kontes Glass Co., Vineland, N.J.) with 10 strokes. Nuclei are pelleted by centrifugation at 600 g for 5 min. The supernatant is decanted and centrifuged at 30,000 g for 30 min to pellet a crude membrane fraction. The pellet is suspended in binding buffer (50 mM Tris-Cl, 5 mM MgCl2, pH 7.4). Protein concentration is determined by the Bradford Assay (Bio-Rad Laboratories, Hercules, Calif.). Membranes are frozen on dry ice then stored at −75° C. in aliquots.
[…] The binding reaction is incubated at 23° C. in the presence and absence of 10 μM unlabeled tyramine. Reactions are terminated after 60 min by addition of 3 ml ice cold binding buffer and filtered over GF/C filters that have been soaked for 30 min in 0.3% polyethylenimine. Filters are rinsed one additional time with 3 ml binding buffer. […]

Structure (SMILES): NCC(O)c1ccc(O)cc1 (racemic) [Octopamine (OA), DL-octopamine]
- pKi (Drosophila TyrR [1]; competitive binding with 3H-tyramine): 4.54

Structure (SMILES): NCCc1ccc(O)cc1 [Tyramine (TA), Tyramine]
- Ca2+-bound Fura-2 AM fluorescence [2]: sharp increase
- affinity for TyrR relative to DL-octopamine (Drosophila TyrR [1]; ratio of Ki values): about 22.58 fold

Structure (SMILES): NCCc1ccc(O)cc1 [^3H-tyramine]
- pKd (Drosophila TyrR [3]; 10 μM unlabeled tyramine for nonspecific binding, read-out: Kd for specific binding): 8.59
- Bmax for specific binding (Drosophila TyrR [3]; membranes of TyrR-expressing S2 cells): 0.679 pmol receptor/mg membrane protein
